Assay results from patent publication US9999619B2, “Piperidin-4-yl azetidine derivatives as JAK1 inhibitors” (Incyte Corporation, priority 2010, dated 2018).

Experiments:
Assay type in all cases: biochemical
[1] = molecular target: Jak2 (a.a. 828-1132) (Homo sapiens (Human), UniProt O60674); assay: In vitro JAK kinase assay (HTRF, phosphorylation of a biotinylated peptide), JAK2; conditions: measured at 1 mM ATP
In short: (§1)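 Phosphorylation of a biotinylated peptide by purified His-tagged JAK catalytic domains (insect-cell baculovirus expression) ran 1 hr at room temperature. After stopping with EDTA, Eu-Py20 and SA-APC were bound for 40 minutes and HTRF measured.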

[2] = molecular target: human JAK1 (a.a. 837-1142); assay: In vitro JAK kinase assay (HTRF, phosphorylation of a biotinylated peptide), JAK1; conditions: ratio of JAK2 IC50 to JAK1 IC50, measured at 1 mM ATP
In short: as §1

[3] = molecular target: human JAK1 (a.a. 837-1142) (Homo sapiens, UniProt P23458); assay: as above; conditions: measured at 1 mM ATP
In short: as §1

Jak2 (a.a. 828-1132), sequence (O60674 828-1132): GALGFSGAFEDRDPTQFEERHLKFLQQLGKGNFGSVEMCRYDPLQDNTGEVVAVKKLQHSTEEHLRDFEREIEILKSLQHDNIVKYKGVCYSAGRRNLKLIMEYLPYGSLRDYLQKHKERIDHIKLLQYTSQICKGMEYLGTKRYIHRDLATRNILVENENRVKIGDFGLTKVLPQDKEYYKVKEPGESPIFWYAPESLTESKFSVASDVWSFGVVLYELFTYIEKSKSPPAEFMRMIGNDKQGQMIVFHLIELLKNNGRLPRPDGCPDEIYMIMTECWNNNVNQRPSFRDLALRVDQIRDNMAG

COc1ccc(F)cc1C(=O)N1CCC(N2CC(CC#N)(n3cc(-c4ncnc5[nH]ccc45)cn3)C2)CC1 [Example 38, {1-[1-(5-fluoro-2-methoxybenzoyl)piperidin-4-yl]-3-[4-(7H-pyrrolo[2,3-d]pyrimidin-4-yl)-1H-pyrazol-1-yl]azetidin-3-yl}acetonitrile]
IC50 [1]: ≤ 10 nM | IC50 Ratio JAK2/JAK1 [2]: 5.7 | IC50 [3]: ≤ 5 nM

N#CCC1(n2cc(-c3ncnc4[nH]ccc34)cn2)CN(C2CCN(C(=O)c3cc(F)ccc3F)CC2)C1 [Example 43, {1-[1-(2,5-difluorobenzoyl)piperidin-4-yl]-3-[4-(7H-pyrrolo[2,3-d]pyrimidin-4-yl)-1H-pyrazol-1-yl]azetidin-3-yl}acetonitrile]
IC50 [1]: 10 to 50 nM | IC50 Ratio JAK2/JAK1 [2]: 5.0 | IC50 [3]: ≤ 5 nM

CC1(N2CC(CC#N)(n3cc(-c4ncnc5[nH]ccc45)cn3)C2)CCN(C(=O)c2cccc(F)c2)CC1 [Example 152, {1-[1-(3-Fluorobenzoyl)-4-methylpiperidin-4-yl]-3-[4-(7H-pyrrolo[2,3-d]pyrimidin-4-yl)-1H-pyrazol-1-yl]azetidin-3-yl}acetonitrile]
IC50 [1]: 10 to 50 nM | IC50 Ratio JAK2/JAK1 [2]: 4.0 | IC50 [3]: 5 to 20 nM

COCCN(C)Cc1cc(C(=O)N2CCC(N3CC(CC#N)(n4cc(-c5ncnc6[nH]ccc56)cn4)C3)CC2)nc(C(F)(F)F)n1 [Example 384, {1-(1-{[6-{[(2-methoxyethyl)(methyl)amino]methyl}-2-(trifluoromethyl)pyrimidin-4-yl]carbonyl}piperidin-4-yl)-3-[4-(7H-pyrrolo[2,3-d]pyrimidin-4-yl)-1H-pyrazol-1-yl]azetidin-3-yl}acetonitrile]
IC50 [1]: 50 to 100 nM | IC50 Ratio JAK2/JAK1 [2]: 29.6 | IC50 [3]: ≤ 5 nM

Cc1nc(C(F)(F)F)ccc1NC(=O)N1CCC(N2CC(CC#N)(n3ccc(-c4ncnc5[nH]ccc45)c3)C2)CC1 [Example 285, 4-{3-(cyanomethyl)-3-[3-(7H-pyrrolo[2,3-d]pyrimidin-4-yl)-1H-pyrrol-1-yl]azetidin-1-yl}-N-[2-methyl-6-(trifluoromethyl)pyridin-3-yl]piperidine-1-carboxamide]
IC50 [1]: 10 to 50 nM | IC50 Ratio JAK2/JAK1 [2]: 5.7 | IC50 [3]: 5 to 20 nM

N#CCC1(n2ccc(-c3ncnc4[nH]ccc34)c2)CN(C2CCN(C(=O)Nc3ccc(Cl)cc3C#N)CC2)C1 [Example 293, 4-{3-(cyanomethyl)-3-[3-(7H-pyrrolo[2,3-d]pyrimidin-4-yl)-1H-pyrrol-1-yl]azetidin-1-yl}-N-(4-chloro-2-cyanophenyl)piperidine-1-carboxamide]
IC50 [1]: 10 to 50 nM | IC50 Ratio JAK2/JAK1 [2]: 3.4 | IC50 [3]: ≤ 5 nM

N#CCC1(n2cc(-c3ncnc4[nH]ccc34)cn2)CN(C2CCN(C(=O)Nc3c(F)cccc3F)CC2)C1 [Example 156, 4-{3-(cyanomethyl)-3-[4-(7H-pyrrolo[2,3-d]pyrimidin-4-yl)-1H-pyrazol-1-yl]azetidin-1-yl}-N-(2,6-difluorophenyl)piperidine-1-carboxamide]
IC50 [1]: 10 to 50 nM | IC50 Ratio JAK2/JAK1 [2]: 11.2 | IC50 [3]: ≤ 5 nM

N#CCC1(n2cc(-c3ncnc4[nH]ccc34)cn2)CN(C2CCN(C(=O)c3cccc(Cl)n3)CC2)C1 [Example 13, {1-{1-[(6-chloropyridin-2-yl)carbonyl]piperidin-4-yl}-3-[4-(7H-pyrrolo[2,3-d]pyrimidin-4-yl)-1H-pyrazol-1-yl]azetidin-3-yl}acetonitrile]
IC50 [1]: 10 to 50 nM | IC50 Ratio JAK2/JAK1 [2]: 5.3 | IC50 [3]: ≤ 5 nM

N#CCC1(n2cc(-c3ncnc4[nH]ccc34)cn2)CN(C2CCN(Cc3cc(C(F)(F)F)ccc3Cl)CC2)C1 [Example 211, {1-{1-[2-chloro-5-(trifluoromethyl)benzyl]piperidin-4-yl}-3-[4-(7H-pyrrolo[2,3-d]pyrimidin-4-yl)-1H-pyrazol-1-yl]azetidin-3-yl}acetonitrile]
IC50 [1]: 10 to 50 nM | IC50 Ratio JAK2/JAK1 [2]: 5.0 | IC50 [3]: 5 to 20 nM
